Results as given in patent publication US20100234381A1, “BIOMARKERS AND METHODS FOR DETERMINING SENSITIVITY TO VASCULAR ENDOTHELIAL GROWTH FACTOR RECEPTOR-2 MODULATORS” (Bristol-Myers Squibb Company, priority 2007, published 2010).
Entries after “also recorded” stand apart in the source; their conditions may differ.

How the values were obtained:
GEO colon cancer cells [1] = assay: VEGF-induced proliferation of GEO colon cancer cells (modified MTS assay); type: cell-based; details: VEGF 2.5 ng/ml; 72 hours
Description: (§1) Cell Culture-GEO colon cancer cell line was routinely maintained in RPMI 1640 (Cellgro, Virginia) with 1% fetal bovine serum (Cellgro, Virginia) at 37° C. in 5% carbon dioxide/95% air in the presence of 100 units/ml penicillin, 100 μg/ml streptomycin (Cellgro, Virginia). Cell proliferation was determined by a modified MTS assay with […] 96® Aqueous One Solution Reagent (Promega, Madison, Wis.). […] After 180 minutes incubation, the optical densities (OD) of these samples were directly measured using SPECTRAMAX® plus (Molecular Device, California) and reference wavelength of 490 nm. […] Cell proliferation was determined by a modified MTS assay with […] […] After 180 minutes incubation, the optical densities (OD) of these samples were directly measured using SPECTRAMAX® plus (Molecular Device, California) and reference wavelength of 490 nm. […] […]

GEO colon cancer cells [2] = assay: FGF2-induced proliferation of GEO colon cancer cells (modified MTS assay); type: cell-based
Description: as §1

## [(1R),2S]-2-Aminopropionic acid 2-[4-(4-fluoro-2-methyl-1H-indol-5-yloxy)-5-methylpyrrolo[2,1-f][1,2,4]triazin-6-yloxy]-1-methylethyl ester [brivanib]
GEO colon cancer cells [1]
  inhibition of VEGF-induced cellular proliferation in GEO cells: did not potently inhibit
GEO colon cancer cells [2]; 2.5 μM brivanib, day 1 to 8 compared to day 0 control
  GEO tumor cell growth over time, stimulated with FGF2: inhibited GEO tumor cell growth stimulated with FGF2
GEO colon cancer cells [2]; FGF2 2.5 ng/ml, 72 hours
  inhibition of FGF2-induced cellular proliferation in GEO cells: potently inhibited; also recorded: inhibited cancer cell growth directly; also recorded: inhibits colon cancer cell growth directly
